Data: PubChem BioAssay AID256 (DTP/NCI, 2004)
Values joined by “and” are separate entries in the source; they are usually repeats but may differ in a detail not shown here. Equal values may be shown once. Toxic doses and inconclusive results are not listed. How the source made its calls: active means survival T/C of 150% or more; inactive means T/C below 125% in these data.

Test system: CD2F1 mice, L1210 leukemia ip, survival T/C
Assay: NCI In Vivo Anticancer Drug Screen. Data for tumor model L1210 Leukemia (intraperitoneal) in CD2F1 (CDF1) mice
Settings: endpoint: mean survival time, higher = longer survival
In short: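 Vehicle-treated tumor-bearing mice served as controls (C) for compound-treated mice (T). Reported figure is T divided by C.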

[1] = dose: 100.0 mg/kg/injection, schedule: Q04DX003 (ip), vehicle: saline
[2] = dose: 100.0 mg/kg/injection, schedule: Q04DX003 (ip), vehicle: saline with Tween-80
[3] = dose: 200.0 mg/kg/injection, schedule: Q04DX003 (ip), vehicle: saline with Tween-80
[4] = dose: 400.0 mg/kg/injection, schedule: Q04DX003 (ip), vehicle: saline with Tween-80
[5] = dose: 100.0 mg/kg/injection, schedule: Q04DX002 (ip), vehicle: saline with Tween-80
[6] = dose: 200.0 mg/kg/injection, schedule: Q04DX002 (ip), vehicle: saline with Tween-80
[7] = dose: 400.0 mg/kg/injection, schedule: Q04DX002 (ip), vehicle: saline with Tween-80
[8] = dose: 25.0 mg/kg/injection, schedule: Q01DX009 (ip), vehicle: saline
[9] = dose: 100.0 mg/kg/injection, schedule: Q01DX009 (ip), vehicle: saline with Tween-80
[10] = dose: 100.0 mg/kg/injection, schedule: Q01DX001 (ip), vehicle: saline
[11] = dose: 200.0 mg/kg/injection, schedule: Q01DX009 (ip), vehicle: saline with Tween-80
[12] = dose: 400.0 mg/kg/injection, schedule: Q01DX009 (ip), vehicle: saline with Tween-80

Measured: T/C

O=C(Nc1ccccc1C(F)(F)F)OCCOc1ccc(Br)cc1
inactive: dose: 100.0 mg/kg/injection, schedule: Q01DX009 (ip), vehicle: Klucel (hydroxypropylcellulose) (HPC) 100 % of control | dose: 200.0 mg/kg/injection, schedule: Q01DX009 (ip), vehicle: Klucel (hydroxypropylcellulose) (HPC) 103 % of control | dose: 400.0 mg/kg/injection, schedule: Q01DX009 (ip), vehicle: Klucel (hydroxypropylcellulose) (HPC) 87 % of control

CN(N)C=O
inactive: dose: 25.0 mg/kg/injection, schedule: Q04DX003 (ip), vehicle: saline 98 % of control | dose: 50.0 mg/kg/injection, schedule: Q04DX003 (ip), vehicle: saline 94 % of control | [1] 102 % of control

O=C(Cc1cccc2ccccc12)N/N=C/c1ccc2c(c1)CCC2
inactive: [2] 89 % of control | [3] 95 % of control | [4] 95 % of control

O=C(/C=C/c1ccccc1)c1cccc([N+](=O)[O-])c1
inactive: [5] 91 % of control | [6] 91 % of control | [7] 95 % of control

COc1ccc2c(c1)CCC(c1ccccc1)=C2c1ccc(OCCN2CCCC2)cc1
inactive: dose: 6.0 mg/kg/injection, schedule: Q01DX009 (ip), vehicle: saline with Tween-80 103 % of control | dose: 12.0 mg/kg/injection, schedule: Q01DX009 (ip), vehicle: saline with Tween-80 106 % of control | dose: 24.0 mg/kg/injection, schedule: Q01DX009 (ip), vehicle: saline with Tween-80 101 % of control | dose: 40.0 mg/kg/injection, schedule: Q04DX003 (ip), vehicle: saline with Tween-80 104 % of control | dose: 80.0 mg/kg/injection, schedule: Q04DX003 (ip), vehicle: saline with Tween-80 101 % of control

CN=Cc1ccccc1
inactive: [8] 97 % of control | dose: 50.0 mg/kg/injection, schedule: Q01DX009 (ip), vehicle: saline 97 % of control | dose: 100.0 mg/kg/injection, schedule: Q01DX009 (ip), vehicle: saline 100 % of control

O=c1[nH]cnc2c1ncn2C1OC(CO)C(O)C1O.[Ag+] (configuration not stated)
inactive: dose: 12.5 mg/kg/injection, schedule: Q01DX005 (ip), vehicle: other 92 % of control | dose: 25.0 mg/kg/injection, schedule: Q01DX005 (ip), vehicle: other 98 % of control | dose: 50.0 mg/kg/injection, schedule: Q01DX005 (ip), vehicle: other 87 % of control

CCOC(=O)C(C)(Br)C(=O)OCC
inactive: dose: 50.0 mg/kg/injection, schedule: Q01DX009 (ip), vehicle: saline with Tween-80 104 % of control | [9] 105 % of control

CC(C(=O)c1ccccc1)N(C)c1ccccc1 (configuration not stated)
inactive: [1] 107 % of control | dose: 200.0 mg/kg/injection, schedule: Q04DX003 (ip), vehicle: saline 100 % of control | dose: 400.0 mg/kg/injection, schedule: Q04DX003 (ip), vehicle: saline 102 % of control

COC(=O)c1[nH]cnc1/N=N\N(CCF)CCF
inactive: dose: 2.1 mg/kg/injection, schedule: Q01DX009 (ip), vehicle: carboxymethylcellulose (CMC) 109 % of control | dose: 4.2 mg/kg/injection, schedule: Q01DX009 (ip), vehicle: carboxymethylcellulose (CMC) 108 % of control

N.N.N.N.N.N#CN=C(N)N.[Co+3].[O-][Cl+3]([O-])([O-])[O-]
inactive: dose: 25.0 mg/kg/injection, schedule: Q04DX002 (ip), vehicle: saline 97 % of control | dose: 50.0 mg/kg/injection, schedule: Q04DX002 (ip), vehicle: saline 101 % of control | dose: 100.0 mg/kg/injection, schedule: Q04DX002 (ip), vehicle: saline 101 % of control

CCN(CC)C(C)C(=O)Nc1c(C)cccc1Cl (configuration not stated)
inactive: [8] 92 % of control | [10] 109 % of control

O=C(O)C1CCCC[N-]1.[Cl][Pd][Cl] (configuration not stated)
inactive: dose: 12.5 mg/kg/injection, schedule: Q01DX001 (ip), vehicle: saline 95 % of control | dose: 25.0 mg/kg/injection, schedule: Q01DX001 (ip), vehicle: saline 108 % of control | dose: 50.0 mg/kg/injection, schedule: Q01DX001 (ip), vehicle: saline 98 % of control | [10] 104 % of control | dose: 200.0 mg/kg/injection, schedule: Q01DX001 (ip), vehicle: saline 109 % of control

C1CCC(NC2=NCCO2)CC1
inactive: [2] 90 % of control

COc1cc(Cl)ccc1NC(=O)OCCOc1cc(OC)c(Cl)c(OC)c1
inactive: [9] 101 % of control | [11] 103 % of control | [12] 101 % of control

C[C@@H]1C[C@H]2CC[C@H](O2)[C@H](C)C(=O)O[C@@H](C)C[C@@H]2CC[C@@H](O2)[C@@H](C)C(=O)O[C@H](C)C[C@H]2CC[C@H](O2)[C@H](C)C(=O)O[C@@H](C)C[C@@H]2CC[C@@H](O2)[C@@H](C)C(=O)O1
inactive: dose: 8.0 mg/kg/injection, schedule: Q01DX008 (iv), vehicle: saline 98 % of control | dose: 16.0 mg/kg/injection, schedule: Q01DX008 (iv), vehicle: saline 98 % of control | dose: 32.0 mg/kg/injection, schedule: Q01DX008 (iv), vehicle: saline 95 % of control

C/C=C(/C(=O)OC)c1ccc([N+](=O)[O-])cc1
inactive: [9] 94 % of control | [2] 92 % of control | [11] 95 % of control | [3] 94 % of control | [12] 94 % of control | [4] 92 % of control

O=C(/C(Br)=C/c1ccccc1)c1ccccc1
inactive: dose: 100.0 mg/kg/injection, schedule: Q04DX003 (ip), vehicle: other 103 % of control | dose: 200.0 mg/kg/injection, schedule: Q04DX003 (ip), vehicle: other 105 % of control

CCCCCCCCCCCc1n(Cc2ccccc2)c2ccccc2[n+]1C
inactive: dose: 0.25 mg/kg/injection, schedule: Q01DX009 (ip), vehicle: saline 117 % of control | dose: 0.25 mg/kg/injection, schedule: Q04DX003 (ip), vehicle: saline 102 % of control | dose: 0.5 mg/kg/injection, schedule: Q01DX009 (ip), vehicle: saline 110 % of control | dose: 0.5 mg/kg/injection, schedule: Q04DX003 (ip), vehicle: saline 104 % of control | dose: 1.0 mg/kg/injection, schedule: Q01DX009 (ip), vehicle: saline 121 % of control | dose: 1.0 mg/kg/injection, schedule: Q04DX003 (ip), vehicle: saline 106 % of control

O=C(O)CCCCCCCCC#CC#CCCCc1ccccc1
inactive: dose: 100.0 mg/kg/injection, schedule: Q04DX003 (ip), vehicle: Klucel (hydroxypropylcellulose) (HPC) 95 % of control | dose: 200.0 mg/kg/injection, schedule: Q04DX003 (ip), vehicle: Klucel (hydroxypropylcellulose) (HPC) 95 % of control | dose: 400.0 mg/kg/injection, schedule: Q04DX003 (ip), vehicle: Klucel (hydroxypropylcellulose) (HPC) 97 % of control

c1ccc(C2=Nc3ccccc3C(c3ccccc3)=Nc3ccccc32)cc1
inactive: [2] 109 % of control | [3] 91 % of control | [4] 101 % of control

CC1(C)OC2COC3(COC(C)(C)O3)C(OS(C)(=O)=O)C2O1 (configuration not stated)
inactive: [9] 102 % of control | [11] 93 % of control | [12] 95 % of control

CCOC(=O)CC(=O)C(F)(F)F.CCOC(=O)CC(=O)C(F)(F)F.[Ni]
inactive: dose: 150.0 mg/kg/injection, schedule: Q01DX001 (ip), vehicle: saline 115 % of control

c1ccc(N=C(C(=Nc2ccccc2)c2ccccn2)c2cccnc2)cc1
inactive: dose: 100.0 mg/kg/injection, schedule: Q01DX001 (ip), vehicle: Klucel (hydroxypropylcellulose) (HPC) 93 % of control | dose: 200.0 mg/kg/injection, schedule: Q01DX001 (ip), vehicle: Klucel (hydroxypropylcellulose) (HPC) 103 % of control | dose: 400.0 mg/kg/injection, schedule: Q01DX001 (ip), vehicle: Klucel (hydroxypropylcellulose) (HPC) 100 % of control

CC(C(=O)c1cc(O)c(O)cc1C(O)(C(F)(F)F)C(F)(F)F)C(O)(C(F)(F)F)C(F)(F)F (configuration not stated)
inactive: [9] 94 % of control | [11] 94 % of control | [12] 94 % of control

O=C(O)C(O)(C1CCCCC1)C1CCC2CCC3CCCC1C32 (configuration not stated)
inactive: [2] 105 % of control | [3] 87 % of control | [4] 105 % of control

OCc1c(Cl)cccc1Cl
inactive: dose: 100.0 mg/kg/injection, schedule: Q01DX001 (ip), vehicle: saline with Tween-80 104 % of control | [9] 96 % of control and 102 % of control | [5] 97 % of control and 105 % of control | [2] 103 % of control | dose: 200.0 mg/kg/injection, schedule: Q01DX001 (ip), vehicle: saline with Tween-80 102 % of control | [11] 95 % of control and 96 % of control | [6] 97 % of control and 112 % of control | [3] 113 % of control | dose: 400.0 mg/kg/injection, schedule: Q01DX001 (ip), vehicle: saline with Tween-80 107 % of control | [12] 101 % of control and 104 % of control | [7] 101 % of control and 109 % of control | [4] 103 % of control
